Data reported in patent publication US7122335B1, “Compounds and methods to enhance rAAV transduction” (priority 1999, dated 2006).
Entries after “also recorded” stand apart in the source; their conditions may differ. Peptide text beside a SMILES is read from it. * marks the point of attachment. Cbz = O=C(OCc1ccccc1)*

Assays:
[1] = tested on: primary human fibroblasts; assay type: cell-based; details: confluent fibroblasts, AV.GFP3ori MOI 1000, 96 hours post-infection; brefeldin A 10 μg/ml, vinblastine 22 μM, cytochalasin B 1 μM, NH4Cl 2 mM, chloroquine 20 μm, LLnL 400 μM, Z-LLL 4 μM
Protocol: FIG. 6. Primary confluent fibroblasts were infected with AV.GFP3ori virus at an MOI=1000 particles/cell following treatment with brefeldin A (10 μg/ml), vinblastine (22 μM), cytochalasin B (1 μM), NH4Cl (2 mM), chloroquine (20 μm), LLnL (400 μM), and Z-LLL (4 μM), final concentration indicated in brackets. Cells were harvested at 96 hours post-infection and the transduction efficiency was compared to untreated rAAV infected cells by FACS analysis for GFP expression. To control for non-specific effects caused by toxicity of the compounds, the percentage of live cells was also assessed by the absence of propidium iodide incorporation.
80% confluent human primary fibroblasts were infected with AV.GFP3ori at an moi of 1000 DNA particles/cell. FIG. 16A depicts GFP transgene expression in the absence (left photographs) and presence of 40 μM LLnL (right photographs) at 96 hours post-infection. […] Top and bottom panels represent bright field and FITC-channel fluorescent photomicrographs, respectively. The mean (+/−SEM, N=3) percentage of cells transduced with rAAV, as measured by FACS sorting of GFP expressing cells, is presented in the bar graph of FIG. 16B. […] In this study, rAAV from infected cells was first immunoprecipitated with anti-VP1,2,3 (AAV-2 capsid) monoclonal antibody followed by Western blot detection of ubiquitin side chains using an anti-ubiquitin monoclonal antibody. […] Epithelia were infected with AV.GFP3ori (10,000 particles/cell) from the basolateral surface following treatment with ubiquitin ligase inhibitor dipeptides (0.2 mM H-Leu-Ala-OH and 0.2 mM H-His-Ala-OH).
Initial studies were performed in confluent primary human fibroblasts since dose titrations and toxicity could be quickly assessed. Selected compounds were used to treat fibroblast monolayers prior to rAAV infection. rAAV transduction was assessed at 96 hours post-infection by FACS analysis, and the percentage of dead cells was simultaneously assessed by incorporation of propidium iodide.
These tripeptides are structurally related to chloroquine but have different lipid solubility and specificity for cysteine proteases (Seglen, 1983). These molecules decrease endosomal degradation of molecules by a mechanism different than altering pH.
Transduction of polarized airway epithelial cells and primary human fibroblasts. rAAV infection of fully differentiated bronchial cells was performed as described in Duan et al. (1998). For infections from the apical surface of the airway cells, 5 μl rAAV was mixed with 50 μl of culture media and applied directly onto the apical compartment of Millicell inserts (MOI=10,000 particles/cell). During apical infection, the basolateral side of the Millicell was continuously bathed in culture media. Gene transfer to the basal side was performed by inverting Millicell inserts and applying viral vector to the bottom of the supporting filter membrane in a 50 μl volume for 2 hours. Subsequently, Millicell inserts were returned to the upright position, in the continued presence of the original viral inoculum plus an additional 450 μl of media. For both apical and basolateral infections, rAAV containing media was removed after 24 hours and replaced with either fresh culture media (for the basal side) or exposed to air (for the apical side). To test the effect of different agents on the efficiency of AAV transduction in polarized airway cells, 1 μl of each solution was mixed with AAV prior to infection of airway epithelia. Agents were usually presented during the 24 hours AAV infection period unless indicated otherwise.

[2] = Toxicity of proteasome inhibitors in mice, intra-tracheal and systemic (IV) delivery; assay type: in vivo; details: 10, 100 and 1000 fold higher doses than used in polarized airway cells
Protocol: Long-term enhancement of rAAV transduction by proteasome inhibitor in vivo. To evaluate the potential utility of proteasome inhibitors for in vivo gene therapy, both the toxicity and efficacy of these agents for in vivo rAAV mediated gene transfer in the mouse lung was tested. To assess the toxicity of these proteasome inhibitors in mice, 10, 100, and 1000 fold higher effective doses of LLnL or Z-LLL were administered than used to induce gene transfer in polarized airway cells, using both intra-tracheal and systemic (IV) delivery. No toxicity was indicated by histologic evaluation of the lung and liver (data not shown) or was evidenced by the death of animals. To investigate whether these proteasome inhibitors could improve rAAV transduction in vivo, AV.LacZ (5×10^10 particles) was delivered either alone or in the presence of 400 μM Z-LLL by intranasal administration. Mouse lungs were harvested at 3, 10 and 150 days post-infection to evaluate short and long term effects. […] Targeted transgene expression was predominantly confined to the conducting airways, rather than in the parenchyma. Alveolar cells were rarely transduced. […] The range of transgene expression in distal and proximal airways was 0 to 4% and 5 to 18%, respectively.

[3] = tested on: polarized human airway epithelia; assay: In situ localization of S35-labeled rAAV particles (photoemulsion, morphometry); assay type: cell-based; details: 2 hours post-infection, apical or basolateral infection
Protocol: FIG. 13. In situ localization of rAAV in the polarized airway epithelia using S^35 labeled virus. Polarized human airway epithelia were infected with S^35-labeled virus (MOI=50,000 particles/cell) from either the apical or basolateral side (+/−LLnL). At 2 hours post-infection, transwells were washed with media three times and fixed in 4% paraformaldehyde overnight prior to cryoprotection in sucrose and OCT embedding. 10 μm frozen sections were overlaid with photoemulsion and developed after 5 weeks of exposure. Panel A depicts the typical localization pattern following basolateral infection in the presence of LLnL. Arrows indicate nuclear-associated virus. Panel B presents enlargements of boxed regions in Panel A. Blinded morphometric quantification was performed by counting the number of nuclear-associated and cytoplasmic radioactive grains of 10 random fields, as shown in Panel A. A total of 60 cells was quantitated per field, to give a total of 600 cells per sample and 2400 cells per condition. Results in Panel C are the mean +/−SEM of four independent samples for each condition.
Cryosections of polarized airway epithelial cells infected with ^35S-labeled AV.GFP3ori (MOI=50,000 particles/cell) from the apical or basolateral sides in the presence or absence of LLnL were overlaid with photographic emulsion and exposed for 5 weeks prior to developing. […]

For CC(C)C[C@@H](C=O)NC(=O)[C@H](CC(C)C)NC(=O)[C@H](CC(C)C)NC(=O)OCc1ccccc1 [Z-LLL, N-carbobenzoxyl-L-leucinyl-L-leucinyl-L-leucinal] (Cbz-Leu-Leu-Leu-aldehyde), the “rAAV transduction (GFP expression) compared to untreated rAAV infected cells” value [1] was “significantly increased rAAV transduction” and the “toxicity (histology of lung and liver, death of animals)” value [2] was “No toxicity”.

With “N-acetyl-L-leucinyl-L-leucinal-L-norleucinal [LLnL]” the “intracellular distribution of radiolabeled rAAV particles (nuclear vs cytoplasmic grains)” value [3] was “significant increase in nuclear trafficking; also recorded: significant shift to nuclear associated grains”, the “rAAV transduction (GFP expression) compared to untreated rAAV infected cells” value [1] was “significantly increased rAAV transduction” and the “toxicity (histology of lung and liver, death of animals)” value [2] was “No toxicity”.
